{"source": "patent EP3848017A1", "about": "“ORAL CARE COMPOSITION CONTAINING INDOLE COMPONENTS FOR TREATING CARIES” (3M Innovative Properties Company, priority 2020, dated 2021)", "data": [{"tested_on": "in vitro human saliva microcosm biofilm", "assay": "Determination of Lactic Acid Release (LAR) after Permanent Exposure Procedure (LDH-NAD-PMS-MTT enzyme assay)", "type": "cell-based", "settings": "Indole 0.07 wt.% in MCM-1% sucrose, about 26 hours biofilm growth, 37 °C, vs untreated control TC0, negative number = release of lactic acid reduced", "protocol": "(§1) To determine the metabolic activity of the biofilm sample, the accumulation of lactic acid in the supernatant (1.0 ml PBS-solution with 5% sucrose per each biofilm sample disc) was measured by using the Lactic acid dehydrogenase (LDH)- Nicotinamide-adenine-dinucleotide (NAD)-Phenazine Methosulphate (PMS) - Thiazolyl blue tetrazolium bromide (MTT) - enzyme assay. To ensure that only freshly produced lactic acid is determined, the biofilm samples were washed four times with 1.0 ml PBS solution for 30 sec each. After 30 min the accumulated amount of lactic acid in the supernatant was measured by analyzing 50 µl of the supernatant. The lactic acid was quantified by the lactic acid specific enzyme assay described above. Known correlation between measured enzyme activity and amount of lactic acid was used to translate measured enzyme activity into the amount of lactic acid present in sample of the supernatant. In accordance to the validation of the in vitro human saliva microcosm biofilm model, a compound should lower the lactic acid release in permanent application of at least 40 or at least 50 % in comparison to the untreated biofilm control. […] Bovine sample disks of about 10 x 10 mm (+/- 2mm) were incubated in a 24 well plate containing 1.8 ml medium in an incubator at 37°C and 60 rpm circular movement. The treatment composition described below were added by pipetting and removed by a suction pump. • Day 1: Four-hours inoculation of bovine sample disks with saliva-mcm media (MCM = mucine containing medium plus 1 % sucrose) at 37 °C (without active substance). • Fresh medium (MCM-1% sucrose) containing the respective amounts of indole component as given in Table 2. This Treatment Composition was used for another 3-hour incubation. • Fresh medium (MCM-1% sucrose and Treatment Composition) for storage for about 14h at 37 °C. • Day 2: Fresh medium (MCM-1% sucrose and Treatment Composition) for 2-hour incubation. • Fresh medium (MCM-1% sucrose and Treatment Composition) for another 2-hour incubation. […]", "units": {"inhibition at 0.07 %": "%"}, "values": [{"molecule": "COc1ccc2[nH]cc(CC(=O)O)c2c1", "note": "[TC2 - IA2, 5-Methoxy-3-Indoleacetic acid]", "inhibition at 0.07 %": 87.8}]}, {"tested_on": "in vitro human saliva microcosm biofilm", "assay": "Determination of Lactic Acid Release (LAR) after Permanent Exposure Procedure (LDH-NAD-PMS-MTT enzyme assay)", "type": "cell-based", "settings": "Indole 0.073 wt.% in MCM-1% sucrose, about 26 hours biofilm growth, 37 °C, vs untreated control TC0, negative number = release of lactic acid reduced", "protocol": "as §1", "units": {"inhibition at 0.073 %": "%"}, "values": [{"molecule": "O=C(O)CCc1c[nH]c2ccccc12", "note": "[TC1 - IA1, Indole-3-propionic acid]", "inhibition at 0.073 %": 95.3}]}, {"tested_on": "in vitro human saliva microcosm biofilm", "assay": "Determination of Lactic Acid Release (LAR) after Permanent Exposure Procedure (LDH-NAD-PMS-MTT enzyme assay)", "type": "cell-based", "settings": "Indole 0.1 wt.% in MCM-1% sucrose, about 26 hours biofilm growth, 37 °C, vs untreated control TC0, negative number = release of lactic acid reduced", "protocol": "as §1", "units": {"inhibition at 0.1 %": "%"}, "values": [{"molecule": "O=C(O)Cc1c[nH]c2ccccc12", "note": "[TC3 - IA3, Indole acetic acid]", "inhibition at 0.1 %": 78}]}, {"tested_on": "lactic acid producing bacteria in an oral biofilm", "assay": "not given", "settings": "qualitative statement; amino acids, as described in EP 18183601.6; cited from earlier work", "values": [{"molecule": "N=C(N)NCCC[C@H](N)C(=O)O", "note": "[arginine]", "reducing the lactic-acid release of bacteria in a biofilm": "not effective"}, {"molecule": "N[C@@H](CC(=O)O)C(=O)O", "note": "[aspartic acid]", "reducing the lactic-acid release of bacteria in a biofilm": "not effective"}, {"molecule": "NC(=O)CC[C@H](N)C(=O)O", "note": "[glutamine]", "reducing the lactic-acid release of bacteria in a biofilm": "not effective"}, {"molecule": "NCC(=O)O", "note": "[glycine]", "reducing the lactic-acid release of bacteria in a biofilm": "useful"}, {"molecule": "N[C@@H](Cc1c[nH]cn1)C(=O)O", "note": "[histidine]", "reducing the lactic-acid release of bacteria in a biofilm": "not effective"}, {"molecule": "CC[C@H](C)[C@H](N)C(=O)O", "note": "[isoleucine]", "reducing the lactic-acid release of bacteria in a biofilm": "useful"}, {"molecule": "CC(C)C[C@H](N)C(=O)O", "note": "[leucine]", "reducing the lactic-acid release of bacteria in a biofilm": "useful"}, {"molecule": "NCCCC[C@H](N)C(=O)O", "note": "[lysine]", "reducing the lactic-acid release of bacteria in a biofilm": "useful"}, {"molecule": "CSCC[C@H](N)C(=O)O", "note": "[methionine]", "reducing the lactic-acid release of bacteria in a biofilm": "useful"}, {"molecule": "N[C@@H](Cc1ccccc1)C(=O)O", "note": "[phenylalanine]", "reducing the lactic-acid release of bacteria in a biofilm": "useful"}, {"molecule": "O=C(O)[C@@H]1CCCN1", "note": "[proline]", "reducing the lactic-acid release of bacteria in a biofilm": "not effective"}, {"molecule": "N[C@@H](CO)C(=O)O", "note": "[serine]", "reducing the lactic-acid release of bacteria in a biofilm": "useful"}, {"molecule": "C[C@@H](O)[C@H](N)C(=O)O", "note": "[threonine]", "reducing the lactic-acid release of bacteria in a biofilm": "useful"}, {"molecule": "N[C@@H](Cc1c[nH]c2ccccc12)C(=O)O", "note": "[tryptophan]", "reducing the lactic-acid release of bacteria in a biofilm": "useful"}, {"molecule": "N[C@@H](Cc1ccc(O)cc1)C(=O)O", "note": "[tyrosine]", "reducing the lactic-acid release of bacteria in a biofilm": "not effective"}, {"molecule": "CC(C)[C@H](N)C(=O)O", "note": "[valine]", "reducing the lactic-acid release of bacteria in a biofilm": "useful"}]}]}
